Reference: US8664265B2, “Stable dosage forms of spiro and dispiro 1,2,4-trioxolane antimalarials” (Ranbaxy Laboratories Limited, priority 2005, dated 2014)

Key:
[1] = Water content by Karl Fischer method in the compatibility studies; type: physicochemical
Experimental: (§1) The role of excipients and water content was evaluated by conducting compatibility studies of active compound with various excipients, in different proportions and evaluating the extent of degradation by forced degradation at 60° C. over the period of 2 weeks and at 50° C. for 4 weeks. The water content was analyzed using Karl Fischer method and the total related substances (% w/w) were determined by HPLC method.

[2] = Compatibility studies of active compound with excipients, forced degradation, total related substances by HPLC; type: physicochemical
Experimental: as §1

[3] = with Aerosol, Drug:Excipient 1:0.1
[4] = with Croscarmellose sodium, Drug:Excipient 1:0.5
[5] = with Cross povidone, Drug:Excipient 1:0.5
[6] = with Dicalcium phosphate, Drug:Excipient 1:2^
[7] = with Dicalcium phosphate, Drug:Excipient 1:10
[8] = with Hydroxypropyl methylcellulose 5 cps, Drug:Excipient 1:0.5
[9] = with Mg. Stearate, Drug:Excipient 1:0.1
[10] = with Micro crystalline cellulose, Drug:Excipient 1:10
[11] = with Microcrystalline cellulose, Drug:Excipient 1:2^
[12] = with Opadry ®, Drug:Excipient 1:0.5
[13] = with Pearlitol, Drug:Excipient 1:2^
[14] = with Pearlitol, Drug:Excipient 1:10
[15] = with Polyethylene glycol 400, Drug:Excipient 1:0.1
[16] = with Polyvinyl pyrrolidone K 30, Drug:Excipient 1:0.5
[17] = with Sodium lauryl sodium, Drug:Excipient 1:0.5
[18] = with Sodium starch glycolate, Drug:Excipient 1:0.5
[19] = with Starch, Drug:Excipient 1:2^
[20] = with Talc, Drug:Excipient 1:0.1
[21] = with Titanium dioxide, Drug:Excipient 1:0.5
[22] = with Starch, Drug:Excipient 1:10

CC(C)(N)CNC(=O)C[C@H]1CC[C@]2(CC1)OOC1(O2)C2CC3CC(C2)CC1C3.O=C(O)/C=C\C(=O)O (stereo partly drawn) [Active compound I, cis-adamantane-2-spiro-3′-8′-[[[(2′-amino-2′-methylpropyl)amino]carbonyl]-methyl]-1′,2′,4′-trioxaspiro[4.5]decane hydrogen maleate]
Water (% w/w) [1, 3]: 0.27 % w/w
Water (% w/w) [1, 4]: 0.59 % w/w
Water (% w/w) [1, 5]: 3.49 % w/w
Water (% w/w) [1, 6]: 2.01 % w/w
Water (% w/w) [1, 7]: 2.14 % w/w
Water (% w/w) [1, 8]: 1.22 % w/w
Water (% w/w) [1, 9]: 0.46 % w/w
Water (% w/w) [1, 10]: 4.94 % w/w
Water (% w/w) [1, 11]: 3.69 % w/w
Water (% w/w) [1, 12]: 0.46 % w/w
Water (% w/w) [1, 13]: 0.02 % w/w
Water (% w/w) [1, 14]: 0.52 % w/w
Water (% w/w) [1, 15]: 0.88 % w/w
Water (% w/w) [1, 16]: 3.02 % w/w
Water (% w/w) [1, 17]: 0.79 % w/w
Water (% w/w) [1, 18]: 1.43 % w/w
Water (% w/w) [1, 19]: 4.73 % w/w
Water (% w/w) [1, 20]: 0.12 % w/w
Water (% w/w) [1, 21]: 0.18 % w/w
Compatibility with excipient ([2]; Microcrystalline cellulose): most satisfactory results
Compatibility with excipient ([2]; Starch, when used in higher amounts): incompatible
Compatibility with excipient ([2]; dicalcium phosphate, at 60° C.): increase in related substances
Compatibility with excipient ([2]; lactose, degradation by other mechanisms such as Maillard reaction): incompatible
Total Related Substance (% w/w) After 2 weeks/60° C. [2, 3]: 0.86 % w/w
Total Related Substance (% w/w) After 4 weeks/50° C. [2, 3]: 0.66 % w/w
Total Related Substance (% w/w) Initial [2, 3]: 0.14 % w/w
Total Related Substance (% w/w) After 2 weeks/60° C. [2, 4]: 0.35 % w/w
Total Related Substance (% w/w) After 4 weeks/50° C. [2, 4]: 0.34 % w/w
Total Related Substance (% w/w) Initial [2, 4]: 0.09 % w/w
Total Related Substance (% w/w) After 2 weeks/60° C. [2, 5]: 0.68 % w/w
Total Related Substance (% w/w) After 4 weeks/50° C. [2, 5]: 0.40 % w/w
Total Related Substance (% w/w) Initial [2, 5]: 0.13 % w/w
Total Related Substance (% w/w) After 2 weeks/60° C. [2, 6]: 1.32 % w/w
Total Related Substance (% w/w) After 4 weeks/50° C. [2, 6]: 0.77 % w/w
Total Related Substance (% w/w) Initial [2, 6]: 0.07 % w/w
Total Related Substance (% w/w) After 2 weeks/60° C. [2, 7]: 6.07 % w/w
Total Related Substance (% w/w) After 4 weeks/50° C. [2, 7]: 0.61 % w/w
Total Related Substance (% w/w) Initial [2, 7]: 0.17 % w/w
Total Related Substance (% w/w) After 2 weeks/60° C. [2, 8]: 1.05 % w/w
Total Related Substance (% w/w) After 4 weeks/50° C. [2, 8]: 0.70 % w/w
Total Related Substance (% w/w) Initial [2, 8]: 0.17 % w/w
Total Related Substance (% w/w) After 2 weeks/60° C. [2, 9]: 0.86 % w/w
Total Related Substance (% w/w) After 4 weeks/50° C. [2, 9]: 0.65 % w/w
Total Related Substance (% w/w) Initial [2, 9]: 0.13 % w/w
Total Related Substance (% w/w) After 2 weeks/60° C. [2, 10]: 1.02 % w/w
Total Related Substance (% w/w) After 4 weeks/50° C. [2, 10]: 0.78 % w/w
Total Related Substance (% w/w) Initial [2, 10]: 0.39 % w/w
Total Related Substance (% w/w) After 2 weeks/60° C. [2, 11]: 0.74 % w/w
Total Related Substance (% w/w) After 4 weeks/50° C. [2, 11]: 0.70 % w/w
Total Related Substance (% w/w) Initial [2, 11]: 0.19 % w/w
Total Related Substance (% w/w) After 2 weeks/60° C. [2, 12]: 0.96 % w/w
Total Related Substance (% w/w) After 4 weeks/50° C. [2, 12]: 1.85 % w/w
Total Related Substance (% w/w) Initial [2, 12]: 0.17 % w/w
Total Related Substance (% w/w) After 2 weeks/60° C. [2, 13]: 0.77 % w/w
Total Related Substance (% w/w) After 4 weeks/50° C. [2, 13]: 0.72 % w/w
Total Related Substance (% w/w) Initial [2, 13]: 0.14 % w/w
Total Related Substance (% w/w) After 2 weeks/60° C. [2, 14]: 0.70 % w/w
Total Related Substance (% w/w) After 4 weeks/50° C. [2, 14]: 0.46 % w/w
Total Related Substance (% w/w) Initial [2, 14]: 0.14 % w/w
Total Related Substance (% w/w) After 2 weeks/60° C. [2, 15]: 0.68 % w/w
Total Related Substance (% w/w) After 4 weeks/50° C. [2, 15]: 0.66 % w/w
Total Related Substance (% w/w) Initial [2, 15]: 0.14 % w/w
Total Related Substance (% w/w) After 2 weeks/60° C. [2, 16]: 0.79 % w/w
Total Related Substance (% w/w) After 4 weeks/50° C. [2, 16]: 0.33 % w/w
Total Related Substance (% w/w) Initial [2, 16]: 0.00 % w/w
Total Related Substance (% w/w) After 2 weeks/60° C. [2, 17]: 1.59 % w/w
Total Related Substance (% w/w) After 4 weeks/50° C. [2, 17]: 0.92 % w/w
Total Related Substance (% w/w) Initial [2, 17]: 0.15 % w/w
Total Related Substance (% w/w) After 2 weeks/60° C. [2, 18]: 0.89 % w/w
Total Related Substance (% w/w) After 4 weeks/50° C. [2, 18]: 0.43 % w/w
Total Related Substance (% w/w) Initial [2, 18]: 0.13 % w/w
Total Related Substance (% w/w) After 2 weeks/60° C. [2, 19]: 0.74 % w/w
Total Related Substance (% w/w) After 4 weeks/50° C. [2, 19]: 0.60 % w/w
Total Related Substance (% w/w) Initial [2, 19]: 0.08 % w/w
Total Related Substance (% w/w) After 2 weeks/60° C. [2, 22]: 4.13 % w/w
Total Related Substance (% w/w) After 4 weeks/50° C. [2, 22]: 0.60 % w/w
Total Related Substance (% w/w) Initial [2, 22]: 0.07 % w/w
Total Related Substance (% w/w) After 2 weeks/60° C. [2, 20]: 0.90 % w/w
Total Related Substance (% w/w) After 4 weeks/50° C. [2, 20]: 0.63 % w/w
Total Related Substance (% w/w) Initial [2, 20]: 0.15 % w/w
Total Related Substance (% w/w) After 2 weeks/60° C. [2, 21]: 0.93 % w/w
Total Related Substance (% w/w) After 4 weeks/50° C. [2, 21]: 0.57 % w/w
Total Related Substance (% w/w) Initial [2, 21]: 0.16 % w/w
